Measured values: ChEMBL document CHEMBL4118189, “Discovery of novel N-hydroxy-2-arylisoindoline-4-carboxamides as potent and selective inhibitors of HDAC11” (Bioorg Med Chem Lett, 2018)
≈ marks a conversion by molar mass, not a printed value.

Legend:
Histone deacetylase 5 = Histone deacetylase 5 (Homo sapiens, UniProt Q9UQL6); assay: Inhibition of full length recombinant human HDAC5 using fluorescent-labeled peptide as substrate by electrophoretic mobility shift assay
Histone deacetylase 1 = Histone deacetylase 1 (Homo sapiens, UniProt Q13547); assay: Inhibition of full length recombinant human HDAC1 using fluorescent-labeled peptide as substrate by electrophoretic mobility shift assay
Chain of Histone deacetylase 1 (Q13547 whole entry): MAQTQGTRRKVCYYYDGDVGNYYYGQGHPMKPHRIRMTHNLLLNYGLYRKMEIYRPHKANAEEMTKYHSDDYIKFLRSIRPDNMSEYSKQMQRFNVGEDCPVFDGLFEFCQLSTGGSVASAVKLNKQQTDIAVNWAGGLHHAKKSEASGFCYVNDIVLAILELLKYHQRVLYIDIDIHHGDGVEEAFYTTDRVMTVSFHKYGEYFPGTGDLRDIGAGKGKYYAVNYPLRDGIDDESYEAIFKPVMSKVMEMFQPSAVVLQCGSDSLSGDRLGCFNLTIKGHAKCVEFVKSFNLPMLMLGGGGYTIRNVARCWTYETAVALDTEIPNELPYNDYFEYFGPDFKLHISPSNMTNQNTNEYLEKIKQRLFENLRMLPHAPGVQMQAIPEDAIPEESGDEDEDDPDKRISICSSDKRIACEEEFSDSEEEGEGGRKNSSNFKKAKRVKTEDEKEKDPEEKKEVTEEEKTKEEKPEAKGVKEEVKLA

[1] = Permeability of the compound by PAMPA; assay type: ADME; conditions: read-out: permeability
Histone deacetylase 2 = Histone deacetylase 2 (Homo sapiens, UniProt Q92769); assay: Inhibition of full length recombinant human HDAC2 using fluorescent-labeled peptide as substrate by electrophoretic mobility shift assay
Chain of Histone deacetylase 2 (Q92769 whole entry): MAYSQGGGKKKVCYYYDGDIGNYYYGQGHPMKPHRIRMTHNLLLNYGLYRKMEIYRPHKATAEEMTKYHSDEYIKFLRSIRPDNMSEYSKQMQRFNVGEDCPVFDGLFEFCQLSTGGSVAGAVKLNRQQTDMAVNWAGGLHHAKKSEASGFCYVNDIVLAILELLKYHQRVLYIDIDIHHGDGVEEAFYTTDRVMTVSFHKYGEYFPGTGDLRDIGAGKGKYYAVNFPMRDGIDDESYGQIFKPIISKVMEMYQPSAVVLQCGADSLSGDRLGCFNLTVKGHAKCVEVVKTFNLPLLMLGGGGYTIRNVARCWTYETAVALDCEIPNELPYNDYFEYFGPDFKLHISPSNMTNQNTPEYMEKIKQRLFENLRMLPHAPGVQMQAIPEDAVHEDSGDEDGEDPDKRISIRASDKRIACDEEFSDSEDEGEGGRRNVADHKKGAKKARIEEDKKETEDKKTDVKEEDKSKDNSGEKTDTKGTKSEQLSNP

[2] = Intrinsic clearance in mouse liver microsomes; assay type: ADME, microsome; conditions: read-out: CLH
Histone deacetylase 3 = Histone deacetylase 3 (Homo sapiens, UniProt O15379); assay: Inhibition of full length recombinant human HDAC3 using fluorescent-labeled peptide as substrate by electrophoretic mobility shift assay
Chain of Histone deacetylase 3 (O15379 whole entry): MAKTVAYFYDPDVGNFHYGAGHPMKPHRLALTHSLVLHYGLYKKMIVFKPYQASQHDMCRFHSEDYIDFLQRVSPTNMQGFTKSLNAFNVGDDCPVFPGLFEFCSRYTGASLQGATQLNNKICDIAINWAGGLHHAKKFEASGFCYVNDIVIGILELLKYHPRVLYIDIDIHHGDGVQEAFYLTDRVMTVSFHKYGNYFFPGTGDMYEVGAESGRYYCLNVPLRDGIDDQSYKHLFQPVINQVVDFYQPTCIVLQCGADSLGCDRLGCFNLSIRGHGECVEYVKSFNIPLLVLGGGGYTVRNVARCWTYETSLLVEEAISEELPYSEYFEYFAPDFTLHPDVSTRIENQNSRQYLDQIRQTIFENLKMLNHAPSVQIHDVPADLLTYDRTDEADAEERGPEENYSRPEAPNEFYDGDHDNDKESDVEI

Histone deacetylase 7 = target: T1, Histone deacetylase 7 (Homo sapiens, UniProt Q8WUI4); assay: Inhibition of full length recombinant human HDAC7 using fluorescent-labeled peptide as substrate by electrophoretic mobility shift assay
T1 sequence (Q8WUI4 whole entry): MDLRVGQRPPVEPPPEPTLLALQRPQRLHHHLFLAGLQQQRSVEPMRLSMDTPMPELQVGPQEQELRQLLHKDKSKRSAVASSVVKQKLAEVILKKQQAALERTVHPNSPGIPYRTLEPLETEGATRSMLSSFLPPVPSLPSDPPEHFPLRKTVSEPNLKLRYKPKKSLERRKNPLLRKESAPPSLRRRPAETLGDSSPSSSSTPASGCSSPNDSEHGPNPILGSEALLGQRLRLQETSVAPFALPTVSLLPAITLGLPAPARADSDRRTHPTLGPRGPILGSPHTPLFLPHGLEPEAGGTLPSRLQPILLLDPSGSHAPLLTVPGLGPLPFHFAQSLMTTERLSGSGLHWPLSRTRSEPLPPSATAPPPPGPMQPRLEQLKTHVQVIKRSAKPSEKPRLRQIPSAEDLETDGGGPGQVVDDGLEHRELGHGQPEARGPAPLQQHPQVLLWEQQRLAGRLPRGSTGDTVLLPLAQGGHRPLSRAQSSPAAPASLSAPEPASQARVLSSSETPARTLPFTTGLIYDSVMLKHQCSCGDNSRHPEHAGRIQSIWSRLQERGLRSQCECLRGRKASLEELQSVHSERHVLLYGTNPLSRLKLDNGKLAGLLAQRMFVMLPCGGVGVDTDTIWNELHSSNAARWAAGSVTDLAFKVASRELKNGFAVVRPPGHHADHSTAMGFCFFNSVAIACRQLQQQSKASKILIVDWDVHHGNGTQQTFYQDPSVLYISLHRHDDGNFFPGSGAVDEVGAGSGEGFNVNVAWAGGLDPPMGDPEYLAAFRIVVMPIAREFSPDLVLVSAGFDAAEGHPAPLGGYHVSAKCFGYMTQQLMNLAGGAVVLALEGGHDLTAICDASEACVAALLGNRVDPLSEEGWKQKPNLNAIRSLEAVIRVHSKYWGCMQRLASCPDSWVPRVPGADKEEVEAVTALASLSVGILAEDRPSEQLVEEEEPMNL

[3] = Kinetic solubility of the compound at pH 7.4; assay type: physicochemical; conditions: buffer, read-out: Kinetic_solubility
Histone deacetylase 11 [4] = target: T2, Histone deacetylase 11 (Homo sapiens, UniProt Q96DB2); assay: Inhibition of full length recombinant human HDAC11 expressed in baculoviral expression system using FAM-RHKK as substrate by electrophoretic mobility shift assay
T2 sequence (Q96DB2 whole entry): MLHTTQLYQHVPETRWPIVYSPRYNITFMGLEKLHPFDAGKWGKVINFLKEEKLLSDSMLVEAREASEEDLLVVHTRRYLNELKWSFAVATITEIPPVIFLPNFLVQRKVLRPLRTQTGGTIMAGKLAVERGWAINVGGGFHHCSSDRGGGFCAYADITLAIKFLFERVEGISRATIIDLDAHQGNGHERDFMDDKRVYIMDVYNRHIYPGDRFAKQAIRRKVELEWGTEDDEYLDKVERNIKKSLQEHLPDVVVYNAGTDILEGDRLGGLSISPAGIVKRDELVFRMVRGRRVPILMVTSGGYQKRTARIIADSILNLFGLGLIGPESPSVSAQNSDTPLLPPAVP

Histone deacetylase 8 = target: T3, Histone deacetylase 8 (Homo sapiens, UniProt Q9BY41); assay: Inhibition of full length recombinant human HDAC8 using fluorescent-labeled peptide as substrate by electrophoretic mobility shift assay
T3 sequence (Q9BY41 whole entry): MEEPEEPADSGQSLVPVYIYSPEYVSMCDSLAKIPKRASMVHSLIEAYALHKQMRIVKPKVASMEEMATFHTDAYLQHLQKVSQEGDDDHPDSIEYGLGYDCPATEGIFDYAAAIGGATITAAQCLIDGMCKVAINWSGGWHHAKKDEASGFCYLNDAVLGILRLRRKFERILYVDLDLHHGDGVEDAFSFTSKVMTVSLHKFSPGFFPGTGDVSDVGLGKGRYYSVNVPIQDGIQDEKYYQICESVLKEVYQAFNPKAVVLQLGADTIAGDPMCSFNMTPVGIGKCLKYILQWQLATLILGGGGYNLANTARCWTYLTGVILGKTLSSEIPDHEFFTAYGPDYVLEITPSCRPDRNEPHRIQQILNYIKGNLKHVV

[5] = target: T4, Polyamine deacetylase HDAC10 (Homo sapiens, UniProt Q969S8); assay: Inhibition of full length recombinant human HDAC10 using fluorescent-labeled peptide as substrate by electrophoretic mobility shift assay
T4 sequence (Q969S8 whole entry): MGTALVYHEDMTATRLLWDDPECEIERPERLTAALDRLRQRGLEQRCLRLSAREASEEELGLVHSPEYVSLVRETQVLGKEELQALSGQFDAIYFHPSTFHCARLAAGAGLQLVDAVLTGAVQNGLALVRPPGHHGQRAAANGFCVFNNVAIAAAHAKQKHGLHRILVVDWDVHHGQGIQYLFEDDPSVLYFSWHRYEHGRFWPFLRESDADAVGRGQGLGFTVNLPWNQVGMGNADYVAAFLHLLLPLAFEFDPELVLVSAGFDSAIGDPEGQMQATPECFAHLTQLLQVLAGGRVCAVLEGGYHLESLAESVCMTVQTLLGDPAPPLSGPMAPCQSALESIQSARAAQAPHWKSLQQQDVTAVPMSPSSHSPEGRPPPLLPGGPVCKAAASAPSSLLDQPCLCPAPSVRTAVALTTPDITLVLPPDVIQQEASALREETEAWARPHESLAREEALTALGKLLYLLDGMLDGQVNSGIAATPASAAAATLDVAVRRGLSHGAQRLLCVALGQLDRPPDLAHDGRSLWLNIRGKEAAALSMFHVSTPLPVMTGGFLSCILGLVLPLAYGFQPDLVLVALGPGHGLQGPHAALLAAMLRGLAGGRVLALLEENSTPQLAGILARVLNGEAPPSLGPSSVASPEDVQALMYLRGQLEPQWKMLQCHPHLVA

Histone deacetylase 4 = Histone deacetylase 4 (Homo sapiens, UniProt P56524); assay: Inhibition of full length recombinant human HDAC4 using fluorescent-labeled peptide as substrate by electrophoretic mobility shift assay
Chain of Histone deacetylase 4 (P56524 whole entry): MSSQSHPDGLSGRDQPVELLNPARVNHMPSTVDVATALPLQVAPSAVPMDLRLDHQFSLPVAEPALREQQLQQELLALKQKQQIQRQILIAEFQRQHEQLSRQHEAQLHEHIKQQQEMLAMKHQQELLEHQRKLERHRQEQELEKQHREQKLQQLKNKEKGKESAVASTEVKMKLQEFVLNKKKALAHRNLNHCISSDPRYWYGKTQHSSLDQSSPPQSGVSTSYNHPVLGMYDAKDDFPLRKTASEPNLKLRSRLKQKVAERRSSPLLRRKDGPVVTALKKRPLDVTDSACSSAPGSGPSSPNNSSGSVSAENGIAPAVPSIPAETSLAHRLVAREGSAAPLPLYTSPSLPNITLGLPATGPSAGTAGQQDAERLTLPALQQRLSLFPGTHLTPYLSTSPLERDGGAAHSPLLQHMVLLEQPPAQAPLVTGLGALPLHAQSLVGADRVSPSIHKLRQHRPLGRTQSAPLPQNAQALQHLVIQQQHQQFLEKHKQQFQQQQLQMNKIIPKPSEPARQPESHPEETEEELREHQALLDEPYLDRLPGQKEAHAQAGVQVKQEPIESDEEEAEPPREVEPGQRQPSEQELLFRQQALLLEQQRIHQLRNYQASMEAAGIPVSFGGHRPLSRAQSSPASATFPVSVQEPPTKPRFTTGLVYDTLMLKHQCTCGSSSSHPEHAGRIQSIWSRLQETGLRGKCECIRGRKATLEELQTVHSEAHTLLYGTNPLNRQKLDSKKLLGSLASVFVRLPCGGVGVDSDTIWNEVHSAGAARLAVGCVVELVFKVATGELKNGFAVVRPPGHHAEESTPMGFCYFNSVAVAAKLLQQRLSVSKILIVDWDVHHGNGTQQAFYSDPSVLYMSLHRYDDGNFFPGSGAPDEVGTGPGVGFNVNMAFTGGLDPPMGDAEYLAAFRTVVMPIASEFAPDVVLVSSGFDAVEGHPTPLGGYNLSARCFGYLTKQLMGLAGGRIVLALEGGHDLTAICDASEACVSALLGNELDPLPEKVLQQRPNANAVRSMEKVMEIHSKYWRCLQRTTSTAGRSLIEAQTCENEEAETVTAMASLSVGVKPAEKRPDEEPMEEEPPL

Histone deacetylase 11 [6] = target: T2, Histone deacetylase 11; assay: Inhibition of NanoLuc-tagged HDAC11 (unknown origin) by BRET assay

Chain of Histone deacetylase 5 (Q9UQL6 whole entry): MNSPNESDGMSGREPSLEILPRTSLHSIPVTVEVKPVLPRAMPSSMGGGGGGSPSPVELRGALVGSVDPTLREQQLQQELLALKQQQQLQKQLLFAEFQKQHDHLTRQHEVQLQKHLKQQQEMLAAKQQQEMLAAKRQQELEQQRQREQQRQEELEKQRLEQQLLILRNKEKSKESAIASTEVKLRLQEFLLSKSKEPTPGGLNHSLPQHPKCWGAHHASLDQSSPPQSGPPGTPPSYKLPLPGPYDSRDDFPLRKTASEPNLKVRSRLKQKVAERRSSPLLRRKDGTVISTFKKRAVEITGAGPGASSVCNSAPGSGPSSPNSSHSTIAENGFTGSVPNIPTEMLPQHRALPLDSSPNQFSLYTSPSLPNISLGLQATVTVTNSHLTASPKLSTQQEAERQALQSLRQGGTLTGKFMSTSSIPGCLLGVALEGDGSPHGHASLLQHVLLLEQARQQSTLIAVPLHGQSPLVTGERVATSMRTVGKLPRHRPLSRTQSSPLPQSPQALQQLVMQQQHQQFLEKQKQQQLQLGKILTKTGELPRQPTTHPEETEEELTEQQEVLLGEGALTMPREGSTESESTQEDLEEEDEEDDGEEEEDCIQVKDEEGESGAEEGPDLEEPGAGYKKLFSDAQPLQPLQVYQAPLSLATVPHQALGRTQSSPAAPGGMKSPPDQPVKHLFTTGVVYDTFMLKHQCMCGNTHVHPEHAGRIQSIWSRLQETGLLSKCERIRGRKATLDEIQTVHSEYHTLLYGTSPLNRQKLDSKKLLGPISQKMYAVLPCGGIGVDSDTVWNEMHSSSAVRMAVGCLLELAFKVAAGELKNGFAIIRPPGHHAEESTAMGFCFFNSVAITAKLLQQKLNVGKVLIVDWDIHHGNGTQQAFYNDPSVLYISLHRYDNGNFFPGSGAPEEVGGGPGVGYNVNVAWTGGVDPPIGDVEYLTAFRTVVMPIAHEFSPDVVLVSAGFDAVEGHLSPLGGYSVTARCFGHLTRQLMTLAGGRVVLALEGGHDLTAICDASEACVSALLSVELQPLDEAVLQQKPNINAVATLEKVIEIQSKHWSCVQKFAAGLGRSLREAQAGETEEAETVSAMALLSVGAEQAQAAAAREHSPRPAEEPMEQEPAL

**Q.** With CC1(C)c2cccc(C(N)=O)c2CN1c1cnc(C(F)(F)F)cn1 as the compound, how does the IC50 (Histone deacetylase 5) read?
**A.** The IC50 was over 10 µM.

**Q.** And the IC50 (Histone deacetylase 1)?
**A.** Its IC50 is over 10 µM.

**Q.** What about the Papp [1] of the same compound?
**A.** The Papp was 17 ×10⁻⁶ cm/s.

**Q.** What about the IC50 (Histone deacetylase 2) of the same compound?
**A.** Its IC50 is over 10 µM.

**Q.** What about the microsomal CLint [2] of the same compound?
**A.** Its microsomal CLint is 7 µL/min/mg.

**Q.** What about the IC50 (Histone deacetylase 3) of the same compound?
**A.** The IC50 was over 10 µM.

**Q.** What about the IC50 (Histone deacetylase 7) of the same compound?
**A.** Its IC50 is over 10 µM.

**Q.** And the solubility kinetic [3]?
**A.** Its solubility kinetic is 0.3 µM (≈ 0.101 µg/mL).

**Q.** And the IC50 (Histone deacetylase 11 [4])?
**A.** The IC50 was over 10 µM.

**Q.** And the IC50 (Histone deacetylase 8)?
**A.** Its IC50 is over 10 µM.

**Q.** What about the IC50 [5] of the same compound?
**A.** Its IC50 is over 10 µM.

**Q.** What about the IC50 (Histone deacetylase 4) of the same compound?
**A.** The IC50 was over 10 µM.

**Q.** What about the IC50 (Histone deacetylase 11 [6]) of the same compound?
**A.** The IC50 was over 25 µM.
